PubChem BioAssay AID1963869 (Molecular Pharmacology Branch, DTP, NCI, 2024)
pIC50: −log10 of the molar value.

Tested on: KRAS patient-derived spheroids with HUVEC/MSC, viability
Assay: Anticancer human tumor 323965-272-R-J2-PDC patient-derived pancreatic carcinoma cell line growth inhibition [KRAS2]
Details: for pIC50: curve of first compound; for viability, T/C: stronger effect = lower value
Procedure, shortened: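 KRAS-mutant tumor cells were grown as spheroids with HUVEC endothelial cells and human MSCs as stroma. Targeted agents were tested alone and with KRAS pathway inhibitors. Doses started at or near clinical Cmax, or 10 microM, descending half-log.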

[1] = second compound 0.1 µM, first compound 0.01 µM
[2] = second compound 0.1 µM, first compound 0.0316 µM
[3] = second compound 0.1 µM, first compound 0.1 µM
[4] = second compound 0.1 µM, first compound 0.316 µM
[5] = second compound 0.1 µM, first compound 1 µM
[6] = second compound 0.1 µM, first compound 3.16 µM
[7] = second compound 0.316 µM, first compound 0.01 µM
[8] = second compound 0.316 µM, first compound 0.0316 µM
[9] = second compound 0.316 µM, first compound 0.1 µM
[10] = second compound 0.316 µM, first compound 0.316 µM
[11] = second compound 0.316 µM, first compound 1 µM
[12] = second compound 0.316 µM, first compound 3.16 µM
[13] = second compound 1 µM, first compound 0.01 µM
[14] = second compound 1 µM, first compound 0.0316 µM
[15] = second compound 1 µM, first compound 0.1 µM
[16] = second compound 1 µM, first compound 0.316 µM
[17] = second compound 1 µM, first compound 1 µM
[18] = second compound 1 µM, first compound 3.16 µM
[19] = second compound 3.16 µM, first compound 0.01 µM
[20] = second compound 3.16 µM, first compound 0.0316 µM
[21] = second compound 3.16 µM, first compound 0.1 µM
[22] = second compound 3.16 µM, first compound 0.316 µM
[23] = second compound 3.16 µM, first compound 1 µM
[24] = second compound 3.16 µM, first compound 3.16 µM
[25] = second compound 10 µM, first compound 0.01 µM
[26] = second compound 10 µM, first compound 0.0316 µM
[27] = second compound 10 µM, first compound 0.1 µM
[28] = second compound 10 µM, first compound 0.316 µM
[29] = second compound 10 µM, first compound 1 µM
[30] = second compound 10 µM, first compound 3.16 µM
[31] = second compound 0.1 µM, first compound 10 µM
[32] = second compound 0.316 µM, first compound 10 µM
[33] = second compound 1 µM, first compound 10 µM
[34] = second compound 3.16 µM, first compound 10 µM
[35] = second compound 10 µM, first compound 10 µM
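Further: spheroids exposed to agents for 7 days.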
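Wherever viability, T/C is given: 100% = DMSO vehicle control viability.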

| Compound | pIC50 (second compound 0.1 µM) | pIC50 (second compound 0.316 µM) | pIC50 (second compound 1 µM) | pIC50 (second compound 3.16 µM) | pIC50 (second compound 10 µM) | viability, T/C [2] [%] | viability, T/C [3] [%] | viability, T/C [4] [%] | viability, T/C [5] [%] | viability, T/C [6] [%] | viability, T/C [8] [%] | viability, T/C [9] [%] | viability, T/C [10] [%] | viability, T/C [11] [%] | viability, T/C [14] [%] | viability, T/C [15] [%] | viability, T/C [20] [%] | viability, T/C [21] [%] | viability, T/C [26] [%] | viability, T/C [27] [%] | further results |
| --- | --- | --- | --- | --- | --- | --- | --- | --- | --- | --- | --- | --- | --- | --- | --- | --- | --- | --- | --- | --- | --- |
| CC1COCCN1c1cc(-c2ccnn2C)c2ccnc(-c3ccn[nH]3)c2n1 (stereo not given) + CNCc1ccccc1-c1csc(C(C)Nc2nc(C)nc3cc(OC)c(OC)cc23)c1 | 7.68 | 7.67 | 7.65 | 7.89 | > 8.00 | 37.6 | 22.5 | 20.1 | 18.2 | 17.9 | 35.8 | 20.4 | 19 | 16.1 | 34.3 | 17.9 | 24.2 | 5.14 | 0.13 | 0.13 | viability, T/C [1]: 71.4%; viability, T/C [7]: 77.8%; viability, T/C [12]: 17.1%; viability, T/C [13]: 85.8%; viability, T/C [16]: 17.2%; viability, T/C [17]: 14.9%; viability, T/C [18]: 16.1%; viability, T/C [19]: 57.1%; viability, T/C [22]: 4.3%; viability, T/C [23]: 7.85%; viability, T/C [24]: 8.8%; viability, T/C [25]: 0.18%; viability, T/C [28]: 0.12%; viability, T/C [29]: 0.25%; viability, T/C [30]: 0.19% |
| CC1OCC2(CCN(c3cnc(Sc4ccnc(N)c4Cl)c(N)n3)CC2)C1N (stereo not given) + CNCc1ccccc1-c1csc(C(C)Nc2nc(C)nc3cc(OC)c(OC)cc23)c1 | 6.39 | 6.69 | 6.26 | 6.45 | > 7.50 | 77.4 | 65.6 | 53.4 | 38.6 | 28.7 | 82.1 | 55.4 | 44.1 | 41.6 | 101 | 71.9 | 83.5 | 65.8 | 0.33 | 0.17 | viability, T/C [31]: 17.8%; viability, T/C [12]: 27.9%; viability, T/C [32]: 25.9%; viability, T/C [16]: 60.5%; viability, T/C [17]: 40.7%; viability, T/C [18]: 35.1%; viability, T/C [33]: 33.4%; viability, T/C [22]: 51.3%; viability, T/C [23]: 40.8%; viability, T/C [24]: 27%; viability, T/C [34]: 25.5%; viability, T/C [28]: 0.15%; viability, T/C [29]: 0.14%; viability, T/C [30]: 0.13%; viability, T/C [35]: 0.18% |
| Cn1nccc1Nc1nccc(-c2cc3c(s2)C(C)(C)N(CCN2CCOCC2)C3=O)n1 + CNCc1ccccc1-c1csc(C(C)Nc2nc(C)nc3cc(OC)c(OC)cc23)c1 | 5.98 | 5.87 | 5.40 | 5.78 | > 7.50 | 98.5 | 84.4 | 64.6 | 51.3 | 41 | 86.9 | 79.3 | 71.9 | 52.2 | 95.5 | 89.4 | 92.6 | 78.5 | 0.23 | 0.22 | viability, T/C [31]: 37.2%; viability, T/C [12]: 41.7%; viability, T/C [32]: 38.1%; viability, T/C [16]: 72.8%; viability, T/C [17]: 67.3%; viability, T/C [18]: 48.1%; viability, T/C [33]: 45%; viability, T/C [22]: 70%; viability, T/C [23]: 54.9%; viability, T/C [24]: 43.2%; viability, T/C [34]: 30%; viability, T/C [28]: 0.19%; viability, T/C [29]: 0.17%; viability, T/C [30]: 0.17%; viability, T/C [35]: 0.19% |
| CC(=O)OC12COC1CC(O)C1(C)C(=O)C(O)C3=C(C)C(OC(=O)C(O)C(NC(=O)OC(C)(C)C)c4ccccc4)CC(O)(C(OC(=O)c4ccccc4)C21)C3(C)C (stereo not given) + COc1cc2nc(C)nc(NC(C)c3cc(N)cc(C(F)(F)F)c3)c2cc1OC1CCOC1 | > 8.00 | > 8.00 | > 8.00 | > 8.00 | > 8.00 | 28.6 | 23.8 | 23.2 | 28.2 | 25.2 | 24.5 | 21.6 | 22.4 | 24.5 | 28 | 27.6 | 20.1 | 18.8 | 21.2 | 17.8 | viability, T/C [1]: 28.6%; viability, T/C [7]: 24.2%; viability, T/C [12]: 25.2%; viability, T/C [13]: 21.6%; viability, T/C [16]: 27.2%; viability, T/C [17]: 30.4%; viability, T/C [18]: 35.3%; viability, T/C [19]: 21.4%; viability, T/C [22]: 20.4%; viability, T/C [23]: 20.1%; viability, T/C [24]: 24.3%; viability, T/C [25]: 23.1%; viability, T/C [28]: 17.1%; viability, T/C [29]: 21.2%; viability, T/C [30]: 15.8% |
| CN(C)C/C=C/C(=O)Nc1cc2c(Nc3ccc(F)c(Cl)c3)ncnc2cc1O[C@H]1CCOC1 + COc1cc2nc(C)nc(NC(C)c3cc(N)cc(C(F)(F)F)c3)c2cc1OC1CCOC1 | < 7.00 | < 7.00 | < 7.00 | 7.60 | 7.83 | 62.1 | 60.7 | – | – | – | 51.2 | 54.5 | – | – | 61.3 | 69.1 | 47.8 | 49.2 | 49.1 | 48.4 | viability, T/C (second compound 0.1 µM, first compound 0.000316 µM): 84.3%; viability, T/C (second compound 0.1 µM, first compound 0.001 µM): 65.2%; viability, T/C (second compound 0.1 µM, first compound 0.00316 µM): 65.8%; viability, T/C [1]: 60.5%; viability, T/C (second compound 0.316 µM, first compound 0.000316 µM): 67.7%; viability, T/C (second compound 0.316 µM, first compound 0.001 µM): 65.6%; viability, T/C (second compound 0.316 µM, first compound 0.00316 µM): 53.6%; viability, T/C [7]: 46.5%; viability, T/C (second compound 1 µM, first compound 0.000316 µM): 59.5%; viability, T/C (second compound 1 µM, first compound 0.001 µM): 94.3%; viability, T/C (second compound 1 µM, first compound 0.00316 µM): 74.7%; viability, T/C [13]: 73%; viability, T/C (second compound 3.16 µM, first compound 0.000316 µM): 74.3%; viability, T/C (second compound 3.16 µM, first compound 0.001 µM): 71.7%; viability, T/C (second compound 3.16 µM, first compound 0.00316 µM): 59.5%; viability, T/C [19]: 54.2%; viability, T/C (second compound 10 µM, first compound 0.000316 µM): 92.1%; viability, T/C (second compound 10 µM, first compound 0.001 µM): 75.8%; viability, T/C (second compound 10 µM, first compound 0.00316 µM): 59.3%; viability, T/C [25]: 49.4% |
| O=C(c1cc(Cc2n[nH]c(=O)c3ccccc23)ccc1F)N1CCN(C(=O)C2CC2)CC1 + COc1cc2nc(C)nc(NC(C)c3cc(N)cc(C(F)(F)F)c3)c2cc1OC1CCOC1 | < 5.00 | < 5.00 | < 5.00 | < 5.00 | < 5.00 | 101 | 107 | 94.1 | 98.8 | 88 | 90.3 | 81 | 83.5 | 84.9 | 102 | 103 | 81.5 | 82.2 | 76.7 | 76.3 | viability, T/C [31]: 59.1%; viability, T/C [12]: 78.9%; viability, T/C [32]: 57.7%; viability, T/C [16]: 95.5%; viability, T/C [17]: 99%; viability, T/C [18]: 94.6%; viability, T/C [33]: 50.2%; viability, T/C [22]: 76.1%; viability, T/C [23]: 83.2%; viability, T/C [24]: 76.9%; viability, T/C [34]: 52.5%; viability, T/C [28]: 78.8%; viability, T/C [29]: 75.8%; viability, T/C [30]: 75.9%; viability, T/C [35]: 51.2% |
